# Reference: patent US11866695B2, “Methods and systems and related compositions for mixtures separation with a solid matrix” (CALIFORNIA INSTITUTE OF TECHNOLOGY, priority 2019, dated 2024)
# System: λ phage DNA
# Experiment: Zymo Quick-Viral DNA/RNA kit extraction with additional TPW, LAMP with 2× diluted eluent
# Assay type: biochemical
# Description: LAMP reactions contained the following concentrations of reagents: 1× Isothermal Amplification Buffer (20 mM Tris-HCl pH 8.8, 10 mM (NH4)2SO4, 50 mM KCl, 5 mM MgSO4, 0.1% Tween-20, B0537S, NEB, Ipswich, Mass., USA), an additional 2 mM MgSO4 (B1003S, NEB), 1.4 mM deoxynucleotide mix (N0447L or N0446S, NEB), […] Invitrogen Syto-9 (S34854, Thermo Fisher Scientific), […] Invitrogen bovine serum albumin (15561020, Thermo Fisher Scientific), 320 U/mL WarmStart Bst 2.0 (M0538L, NEB), and were supplemented with nuclease-free water (not DEPC-Treated, 4387936, Thermo Fisher Scientific) up to 10 μL. LAMP primers (Integrated DNA Technologies (IDT), Coralville, Iowa, USA) were designed, ordered, and added at NEB's recommended concentrations of […] FIP/BIP, 0.2μM F3/B3, and […] LoopF/B.
# Each 96-well plate was sealed and briefly spun. Heating and real-time imaging were performed on the Bio-Rad CFX-96 Touch Real-Time PCR Detection System (1855195, Bio-Rad). Each 96-well plate was cooled to 12° C. for 2 min, held at 68° C. for 47 min with 35-second fluorescence read intervals, and a melt-curve analysis was performed. For the E. coli DNA dilution experiment, the 68° C. step was held for 105 min. Time-to-positive (TTP) was determined when the software's automated baseline corrected fluorescence reached 1000 RFU.
# Three different silica-column kits were tested, including: Zymo ZR Viral DNA/RNA Kit (outdated protocol, D7021), Zymo Quick-DNA/RNA Kit (updated protocol, D7021), and the QIAquick PCR Purification Kit (28104, Qiagen). For all silica-column kits, fresh collection tubes were used after each spin and centrifugation speeds were set to 16,000×g. Centrifugation was performed on either an Eppendorf 5415D centrifuge (Eppendorf, Hauppauge, N.Y., USA) or a Thermo Fisher Scientific AccuSpin Micro 17R centrifuge (13-100-676). It was noted that the QIAquick protocol calls for 17,900×g, but instead was run at 16,000×g which was the max speed for the Eppendorf 5415D. […]
structure (smiles),measurement,setting,value
CCCCCCCCCCCO [1-undecanol],reduction in TTP vs manufacturer protocol,2× eluent dilution,0.78 min
same,TTP,"2× eluent dilution, 3 columns",6.00 ± 0.04 min
same,TTP,all 27 wells,10.23 ± 0.06 min
